Values of other authors, collected in patent EP0209897A2, “Peptide enzyme inhibitors” (Merck & Co., Inc., priority 1985, dated 1987).

System: hog renin
Settings: after the injection of hog renin into nephrectomized rats; Gross et al., Science 175:656, 1971

Pepstatin
blood pressure in vivo: reduce blood pressure
